In ChEMBL document CHEMBL5226385, “The Antiangiogenic and Antitumor Effects of Scoparasin B in Non-Small-Cell Lung Cancer” (J Nat Prod, 2023):
Calls of active or inactive are those of the source. No cut-off for these calls is given here.

Key:
[1] = test system: HUVEC; assay: Antiangiogenic activity against human HUVEC cells assessed as inhibition of cell migration measured after 8 hrs by scratch wound healing assay; format: functional, cell-based; settings: dose 5-15 nM
[2] = test system: HMEC-1; assay: Antiangiogenic activity against human HMEC-1 cells assessed as inhibition of cell migration measured after 24 hrs by Transwell migration assay; format: functional, cell-based; settings: dose 5-15 nM
[3] = test system: HUVEC; assay: Antiangiogenic activity against human HUVEC cells assessed as inhibition of cell invasion measured after 24 hrs by Transwell invasion assay; format: functional, cell-based; settings: dose 5-15 nM
[4] = test system: HMEC-1; assay: Antiangiogenic activity against human HMEC-1 cells assessed as inhibition of cell invasion measured after 24 hrs by Transwell invasion assay; format: functional, cell-based; settings: dose 5-15 nM
[5] = test system: HUVEC; assay: Antiangiogenic activity against human HUVEC cells assessed as inhibition of capillary tube-like structure formation incubated for 6 hrs by Matrigel based analysis; format: functional, cell-based; settings: dose 5-20 nM
[6] = test system: HMEC-1; assay: Antiangiogenic activity against human HMEC-1 cells assessed as inhibition of capillary tube-like structure formation incubated for 6 hrs by Matrigel based analysis; format: functional, cell-based; settings: dose 5-20 nM
[7] = organism: Rattus norvegicus; assay: Ex vivo antiangiogenic activity against Sprague-Dawley rat aorta rings assessed as reduction in microvessel sprouting from aortic rings by measuring reduction in segment formation measured after 6 days by microscopic analysis; format: functional; settings: dose 5-20 nM, time 6.0 day
[8] = organism: Rattus norvegicus; assay: Ex vivo antiangiogenic activity against Sprague-Dawley rat aorta rings assessed as reduction in microvessel sprouting from aortic rings by measuring reduction in total microvessel lengths measured after 6 days by microscopic analysis; format: functional; settings: dose 5-20 nM, time 6.0 day
[9] = test system: HUVEC; assay: Downregulation of VEGF-A protein expression in human HUVEC cells at 5 to 15 nM incubated for 36 hrs by western blot analysis; format: functional, cell-based; settings: dose 5-15 nM
[10] = target: Vascular endothelial growth factor receptor 2 (Homo sapiens) (UniProt P35968); assay: Inhibition of VEGF-A-mediated VEGFR2 signaling pathway in human HMEC-1 cells assessed as reduction in VEGFR2 phosphorylation at Tyr1175 residue at 5 to 15 nM incubated for 36 hrs by western blot analysis; format: cell-based; settings: dose 5-15 nM
Vascular endothelial growth factor receptor 2 (Homo sapiens), sequence (P35968 whole entry): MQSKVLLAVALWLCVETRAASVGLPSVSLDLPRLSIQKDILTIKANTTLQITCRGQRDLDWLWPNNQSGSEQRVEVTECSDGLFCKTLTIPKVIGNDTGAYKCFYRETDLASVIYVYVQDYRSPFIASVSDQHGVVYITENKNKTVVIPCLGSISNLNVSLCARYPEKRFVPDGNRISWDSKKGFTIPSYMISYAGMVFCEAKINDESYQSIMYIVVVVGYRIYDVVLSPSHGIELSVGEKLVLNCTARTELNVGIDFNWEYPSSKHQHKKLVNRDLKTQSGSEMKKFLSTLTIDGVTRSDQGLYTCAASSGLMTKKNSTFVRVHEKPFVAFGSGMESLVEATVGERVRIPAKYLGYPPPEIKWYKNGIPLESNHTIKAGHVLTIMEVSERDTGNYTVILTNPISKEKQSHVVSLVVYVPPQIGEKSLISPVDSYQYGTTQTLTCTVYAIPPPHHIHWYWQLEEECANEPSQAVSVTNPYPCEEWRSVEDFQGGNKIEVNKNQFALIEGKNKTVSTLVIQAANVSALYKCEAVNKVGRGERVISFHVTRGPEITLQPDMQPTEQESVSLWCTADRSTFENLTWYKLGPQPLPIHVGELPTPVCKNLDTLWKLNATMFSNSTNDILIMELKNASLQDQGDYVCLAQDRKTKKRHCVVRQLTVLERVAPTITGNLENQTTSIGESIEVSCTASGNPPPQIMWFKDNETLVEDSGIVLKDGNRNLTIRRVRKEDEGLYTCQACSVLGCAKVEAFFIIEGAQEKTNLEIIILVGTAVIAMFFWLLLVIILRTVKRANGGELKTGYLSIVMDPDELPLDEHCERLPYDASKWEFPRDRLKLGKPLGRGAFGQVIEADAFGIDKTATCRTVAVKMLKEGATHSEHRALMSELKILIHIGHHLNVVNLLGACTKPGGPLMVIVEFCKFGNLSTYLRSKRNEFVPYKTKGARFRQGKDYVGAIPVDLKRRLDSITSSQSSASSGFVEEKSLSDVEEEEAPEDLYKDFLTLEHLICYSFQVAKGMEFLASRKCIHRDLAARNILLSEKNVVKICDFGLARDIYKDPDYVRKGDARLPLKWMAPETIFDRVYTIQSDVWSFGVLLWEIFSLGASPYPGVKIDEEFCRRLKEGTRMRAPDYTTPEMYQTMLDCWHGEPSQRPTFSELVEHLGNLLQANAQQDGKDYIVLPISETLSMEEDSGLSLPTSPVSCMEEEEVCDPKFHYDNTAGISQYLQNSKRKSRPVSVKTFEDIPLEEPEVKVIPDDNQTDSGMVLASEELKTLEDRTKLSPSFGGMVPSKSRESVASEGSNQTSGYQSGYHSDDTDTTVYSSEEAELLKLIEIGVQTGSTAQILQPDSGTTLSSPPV

[11] = test system: HMEC-1; assay: Inhibition of VEGF-A secretion in human HMEC-1 cells incubated for 36 hrs by ELISA; format: functional, cell-based; settings: dose 5-15 nM
[12] = target: Vascular endothelial growth factor receptor 2 (Homo sapiens) (UniProt P35968); assay: Inhibition of VEGF-A-mediated VEGFR2 signaling pathway in human HUVEC cells assessed as reduction in mTOR phosphorylation at Ser2448 residue at 5 to 15 nM incubated for 36 hrs by western blot analysis; format: cell-based; settings: dose 5-15 nM
[13] = target: Vascular endothelial growth factor receptor 2 (Homo sapiens) (UniProt P35968); assay: Inhibition of VEGF-A-mediated VEGFR2 signaling pathway in human HUVEC cells assessed as reduction in Akt phosphorylation at Thr308 residue at 5 to 15 nM incubated for 36 hrs by western blot analysis; format: cell-based; settings: dose 5-15 nM
[14] = target: Vascular endothelial growth factor receptor 2 (Homo sapiens) (UniProt P35968); assay: Inhibition of VEGF-A-mediated VEGFR2 signaling pathway in human HMEC-1 cells assessed as reduction in Akt phosphorylation at Thr308 residue at 5 to 15 nM incubated for 36 hrs by western blot analysis; format: cell-based; settings: dose 5-15 nM
[15] = test system: HBVP; assay: Inhibition of PDGF-BB protein expression in human HBVP cells at 5 to 15 nM incubated for 24 hrs by western blot analysis; format: functional, cell-based; settings: dose 5-15 nM
[16] = target: Platelet-derived growth factor receptor beta (Homo sapiens) (UniProt P09619); assay: Inhibition of PDGF-BB-mediated PDGFR-beta signaling axis in human HBVP cells assessed as inhibition of PDGFR-beta phosphorylation at Tyr857 residue at 5 to 15 nM incubated for 24 hrs by western blot analysis; format: cell-based; settings: dose 5-15 nM
Platelet-derived growth factor receptor beta (Homo sapiens), sequence (P09619 whole entry): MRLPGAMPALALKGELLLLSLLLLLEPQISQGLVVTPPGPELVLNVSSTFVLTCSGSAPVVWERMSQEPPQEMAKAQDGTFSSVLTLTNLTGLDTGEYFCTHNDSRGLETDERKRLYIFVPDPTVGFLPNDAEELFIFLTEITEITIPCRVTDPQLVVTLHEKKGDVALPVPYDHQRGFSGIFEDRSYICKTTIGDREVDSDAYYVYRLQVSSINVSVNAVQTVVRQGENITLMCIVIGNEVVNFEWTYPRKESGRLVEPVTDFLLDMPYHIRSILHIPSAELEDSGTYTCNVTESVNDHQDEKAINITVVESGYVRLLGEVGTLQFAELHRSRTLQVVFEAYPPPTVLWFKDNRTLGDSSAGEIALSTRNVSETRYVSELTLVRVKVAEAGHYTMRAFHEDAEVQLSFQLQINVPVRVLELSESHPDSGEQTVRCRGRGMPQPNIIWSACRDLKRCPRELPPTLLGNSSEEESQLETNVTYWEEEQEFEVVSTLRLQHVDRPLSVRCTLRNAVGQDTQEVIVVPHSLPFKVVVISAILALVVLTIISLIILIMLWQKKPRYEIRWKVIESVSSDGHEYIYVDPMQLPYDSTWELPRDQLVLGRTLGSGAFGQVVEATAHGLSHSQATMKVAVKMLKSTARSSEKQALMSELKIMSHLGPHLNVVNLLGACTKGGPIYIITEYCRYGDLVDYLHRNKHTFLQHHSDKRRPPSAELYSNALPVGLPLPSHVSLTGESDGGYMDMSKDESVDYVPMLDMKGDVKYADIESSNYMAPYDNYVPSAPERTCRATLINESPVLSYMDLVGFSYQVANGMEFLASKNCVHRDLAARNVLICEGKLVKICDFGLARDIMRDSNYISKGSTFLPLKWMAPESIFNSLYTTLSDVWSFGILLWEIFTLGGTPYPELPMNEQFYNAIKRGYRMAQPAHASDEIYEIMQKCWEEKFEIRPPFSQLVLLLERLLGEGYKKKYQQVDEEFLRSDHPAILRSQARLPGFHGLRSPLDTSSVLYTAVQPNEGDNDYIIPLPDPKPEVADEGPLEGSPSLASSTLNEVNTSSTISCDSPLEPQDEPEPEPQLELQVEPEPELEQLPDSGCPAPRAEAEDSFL

[17] = test system: HBVP; assay: Inhibition of PDGF-BB mRNA expression in human HBVP cells at 5 to 15 nM incubated for 24 hrs by qPCR analysis; format: functional, cell-based; settings: dose 5-15 nM
[18] = test system: NCI-H1299; assay: Cytotoxicity against human NCI-H1299 cells assessed as reduction in cell viability at 25 nM incubated for 48 hrs by CCK8 assay; format: toxicity, cell-based; settings: nci-h1299, 48 h, 0.025 µM
[19] = test system: NCI-H1299; assay: Inhibition of vasculogenic-mimicry in human NCI-H1299 cells assessed as inhibition of capillary-like network formation by measuring reduction in tube number and vascular branches at 5 to 15 nM measured after 6 hrs by Matrigel-based analysis; format: functional, cell-based; settings: dose 5-15 nM
[20] = test system: NCI-H1299; assay: Inhibition of vasculogenic-mimicry in human NCI-H1299 cells assessed as inhibition of cell migration at 5 to 15 nM measured after 24 hrs by Transwell migration assay; format: functional, cell-based; settings: dose 5-15 nM
[21] = test system: NCI-H1299; assay: Downregulation of Snail protein expression in human NCI-H1299 cells at 5 to 15 nM incubated for 24 hrs by western blot analysis; format: functional, cell-based; settings: dose 5-15 nM
[22] = test system: NCI-H1299; assay: […] of E-Cadherin protein expression in human NCI-H1299 cells at 5 to 15 nM incubated for 24 hrs by western blot analysis; format: functional, cell-based; settings: dose 5-15 nM
[23] = test system: NCI-H1299; assay: Downregulation of Vimentin mRNA expression in human NCI-H1299 cells at 5 to 15 nM incubated for 24 hrs by qPCR analysis; format: functional, cell-based; settings: dose 5-15 nM
[24] = test system: NCI-H1299; assay: Downregulation of Snail mRNA expression in human NCI-H1299 cells at 5 to 15 nM incubated for 24 hrs by qPCR analysis; format: functional, cell-based; settings: dose 5-15 nM
[25] = target: Vascular endothelial growth factor receptor 2 (Homo sapiens) (UniProt P35968); assay: Inhibition of VEGF-A-mediated VEGF-R2 signaling pathway in human NCI-H1299 cells assessed as reduction in VEGF-R2 phosphorylation at Tyr1175 residue at 5 to 15 nM by western blot analysis; format: cell-based; settings: dose 5-15 nM
[26] = test system: NCI-H1299; assay: Antitumor activity against human NCI-H1299 cells xenografted in BALB/c nude mouse assessed as reduction in tumor weight at 0.75 to 1.5 mg/kg, ip administered every other day for 20 days; format: functional, organism-based; settings: dose 0.75-1.5 mg/kg, time 20.0 day
[27] = Toxicity against BALB/c nude mouse xenografted with human NCI-H1299 cells assessed as morphological changes in heart at 0.75 to 1.5 mg/kg, ip administered every other day for 20 days by Hematoxylin and eosin staining based inverted microscopic analysis; format: organism-based; settings: in vivo, 480 h, dose 0.75-1.5 mg/kg, time 20 day
[28] = Toxicity against BALB/c nude mouse xenografted with human NCI-H1299 cells assessed as morphological changes in liver at 0.75 to 1.5 mg/kg, ip administered every other day for 20 days by Hematoxylin and eosin staining based inverted microscopic analysis; format: organism-based; settings: in vivo, 480 h, dose 0.75-1.5 mg/kg, time 20 day
[29] = Toxicity against BALB/c nude mouse xenografted with human NCI-H1299 cells assessed as morphological changes in spleen at 0.75 to 1.5 mg/kg, ip administered every other day for 20 days by Hematoxylin and eosin staining based inverted microscopic analysis; format: organism-based; settings: in vivo, 480 h, dose 0.75-1.5 mg/kg, time 20 day
[30] = Toxicity against BALB/c nude mouse xenografted with human NCI-H1299 cells assessed as morphological changes in lungs at 0.75 to 1.5 mg/kg, ip administered every other day for 20 days by Hematoxylin and eosin staining based inverted microscopic analysis; format: organism-based; settings: in vivo, 480 h, dose 0.75-1.5 mg/kg, time 20 day
[31] = test system: NCI-H1299; assay: Antitumor activity against human NCI-H1299 cells xenografted in BALB/c nude mouse assessed as increase in tumor necrotic areas at 0.75 to 1.5 mg/kg, ip administered every other day for 20 days by Hematoxylin and eosin staining based inverted microscopic analysis; format: functional, organism-based; settings: dose 0.75-1.5 mg/kg, time 20.0 day
[32] = test system: NCI-H1299; assay: Antitumor activity against human NCI-H1299 cells xenografted in BALB/c nude mouse assessed as reduction in Ki67 expression in tumor at 0.75 to 1.5 mg/kg, ip administered every other day for 20 days by immunohistochemical analysis; format: functional, organism-based; settings: dose 0.75-1.5 mg/kg, time 20.0 day
[33] = test system: Mus musculus; assay: Downregulation of VEGF-A protein expression in tumor of BALB/c nude mouse xenografted with human NCI-H1299 cells at 0.75 to 1.5 mg/kg, ip administered every other day for 20 days by immunohistochemical analysis; format: functional, organism-based; settings: dose 0.75-1.5 mg/kg, time 20.0 day

For `COc1ccc(C[C@@H]2NC(=O)[C@@]34OC(=O)O/C=C/[C@@](C)(O)C(=O)[C@@H](C)C/C=C/[C@H]3[C@H](O)[C@](C)(O)[C@@H](C)[C@@H]24)cc1` [SCOPARASIN B], the Activity [1] was “Dose-Dependent Effect”, the Activity [2] was “Dose-Dependent Effect” and the Activity [3] was “Dose-Dependent Effect”. For the same compound, the Activity [4] was “Dose-Dependent Effect”, the Activity [5] was “Dose-Dependent Effect” and the Activity [6] was “Dose-Dependent Effect”. The Activity [7] was “Dose-Dependent Effect”, the Activity [8] was “Dose-Dependent Effect” and the inhibition [9] was “Active”. For the same compound, the inhibition [10] was “Active”, the inhibition [11] was “Dose-Dependent Effect” and the inhibition [12] was “Active”. For the same compound, the inhibition [13] was “Active”, the inhibition [14] was “Active” and the inhibition [15] was “Active”. The inhibition [16] was “Active”, the inhibition [17] was “Active” and the Activity [18] was “Non-Toxic”. For the same compound, the inhibition [19] was “Active”, the inhibition [20] was “Active” and the inhibition [21] was “Active”. For the same compound, the inhibition [22] was “Active”, the inhibition [23] was “Active” and the inhibition [24] was “Active”. The inhibition [25] was “Active”, the Activity [26] was “Active” and the Activity [27] was “Non-Toxic”. The Activity [28] was “Non-Toxic”, the Activity [29] was “Non-Toxic” and the Activity [30] was “Non-Toxic”. The Activity [31] was “Active”, the Activity [32] was “Active” and the inhibition [33] was “Active”.
